Test results: patent EP2958945B1, “COMBINATION THERAPY INVOLVING ANTIBODIES AGAINST CLAUDIN 18.2 FOR TREATMENT OF CANCER” (Astellas Pharma Inc., priority 2013, dated 2014)

Key:
Kato III cells [1] = test: Cell cycle analysis and cell growth, Kato III; format: cell-based, human; settings: for cell cycle arrest: Kato III pretreated for 4 days
Method: Kato III cells, a human gastric tumor cell line, was cultivated in RPMI 1640 medium (Invitrogen) containing 20% FCS (Perbio) and 2 mM Glutamax (Invitrogen) at 37°C and 5% CO2, with or without cytostatic compounds. 5-FU (Neofluor from NeoCorp AG) was tested at a concentration of 10 or 100 ng/ml, and oxaliplatin (Hospira) was tested at a concentration of 50 or 500 ng/ml. […] Cells were harvested with EDTA/trypsin, washed and analysed.
Cell cycle stages were determined based on measurement of cellular DNA content. This allows one to discriminate between cells in the G1-, S- or G2-phase of the cell cycle. In the S-phase DNA duplication occurs whereas in the G2-phase cells grow and prepare for mitosis. Cell cycle analysis was done using the CycleTEST PLUS DNA Reagent Kit from BD Biosciences following the manufacturer's protocol. Flow cytometry acquisition and analysis were performed by using BD FACS CantoII (BD Biosciences) and FlowJo (Tree Star) software.
Kato III cells were pretreated for 4 days with Irinotecan or Docetaxel and analysed for CLDN18.2 expression and cell cycle arrest.

CLDN18.2 [2] = test: CLDN18.2 expression after 3 days pretreatment, Kato III; format: cell-based, human; settings: Kato III pretreated 3 days; Irinotecan 1000 ng/ml, Docetaxel 5 ng/ml, Cisplatin 2000 ng/ml; vs medium cultivated cells
Kato III cells [3] = test: IMAB362 induced ADCC on chemotherapy pretreated Kato III; format: cell-based, human; settings: Kato III pretreated 3 days; Irinotecan 1000 ng/ml, Docetaxel 5 ng/ml, Cisplatin 2000 ng/ml
Method: (§1) Peripheral blood mononuclear cells (PBMCs) including NK cells, monocytes, […] or other effector cells from healthy human donors were purified by Ficoll Hypaque density centrifugation. Washed effector cells were seeded in X-Vivo medium. Kato III cells which express CLDN18.2 endogenously and are of gastric origin were used as target cells in this setting. Target cells stably expressed luciferase, lucifer yellow, which is oxidized by viable cells only.

Kato III cells [4] = test: Viable cells after 3 days pretreatment, Kato III; format: cell-based, human; settings: Kato III pretreated 3 days; Irinotecan 1000 ng/ml, Docetaxel 5 ng/ml, Cisplatin 2000 ng/ml; vs medium cultivated cells
Method: as §1

DANG [5] = test: IMAB362-mediated ADCC on chemotherapy pretreated DANG; format: cell-based, human; settings: DANG pretreated 2 days, Gem 1 ng/ml or Gem 1 ng/ml + Ox 10 ng/ml; vs untreated
Method: Pancreatic cancer target cells were seeded two days in advance in flasks to obtain 80-90% confluent cultures on the day ADCC started. […] NUGC-4 sub 10cH11 subE10 Luci#2 cells (8000 cells/well) were seeded in addition as positive controls in all assays. Cells were cultivated for 4-6 h before addition of antibody and purified PBMCs.
PBMCs were prepared from fresh human buffy coat obtained from healthy donors. About 3x 20-25 ml blood was diluted (1:2) with PBS and carefully layered on 4x 15 ml Ficol-Paque Plus (GE Healthcare) in 50 ml Falcon tubes. Gradients were centrifuged (25 min, 700 g). […] The pellets were resuspended in 50 ml PBS/2 mM EDTA and cells were counted. […]
The next day, 10 µl 8% Triton X100/PBS solution was added to the lysis control wells and 10 µl PBS in all other wells. […] Luminescence resulting from the oxidation of […] by the luciferase of viable cells was measured using a microplate-reader (Infinite200, Tecan, Switzerland). Percentage of cellular cytotoxicity was calculated using the following formula: Specific killing (%) = 100−[(RLUsample−RLUtriton)/(RLUmedium ctrl−RLUtriton)×100] […]
On the day ADCC started, the protocol described above was followed and cell surface expression of CLDN18 was determined in FACS analysis as described above.

DANG [6] = test: Cell cycle analysis, DANG; format: cell-based, human; settings: Gem 2 ng/ml, two days
Method: Cells were plated in six-well plates, and 5-6 hours later chemotherapeutic agents were added for either 24 h 48 h or 3 days. Cells floating in the medium were combined with the adherent cell layer, which was trypsinized. Cells were washed. Either cell cycle analysis was started directly or cell surface staining was done before as described above. Cells are resuspended in 1 ml PBS and added to 3 ml 4% PFA. After 15 min fixation of cells at room temperature cells are pelleted and washed. For RNAse treatment cells were resuspended in 200 µl RNAse (10000 U/ml) plus 0.05% Triton X-100 and incubated for 30 min at 37°C. 1 ml PBS was added and samples were centrifuged and resuspended in 200 µl PBS/PJ 50 µg/ml. At least 30 min later samples were ready to be analyzed by flow cytometry. Cell cycle phase distribution was determined using FlowJo software to analyze DNA content histograms.

CLDN18.2 [7] = test: CLDN18.2 expression after chemotherapeutic pretreatment (RT-PCR, western blot), DANG; format: cell-based, human; settings: Gem 1 ng/ml or Gem 1 ng/ml + Ox 10 ng/ml, 2 days, vs untreated
Method: For RNA isolation from pancreatic cancer cell lines, cells were seeded in 10 cm dishes and grown for 2-3 days until 80% confluent. RNA was isolated according to instructions supplied with the RNeasy® Mini Kit (Qiagen). cDNA preparation was performed following manufacturers instructions provided with the SuperScript® III First Strand kit (Invitrogen). RNA and cDNA samples were stored at -80°C.
Quantitative analysis of CLDN18.2 transcripts was performed by amplifying oligo(dT)-primed cDNAs in a 40 cycle PCR reaction using PCR primers #5054s (5'-[…]-3') and #5060as (5'-[…]-3') differentiating between CLDN18.1 and CLDN18.2 isoforms. The reaction was prepared with SYBR Green (QuantiTect SYBR Green PCR Kit, Qiagen), which intercalates in double stranded DNA. The reactions and measurements were performed using the ABI-PRISM7900 Sequence Detection System instrument and software (Applied Biosystems).
The relative expression levels of CLDN18 transcripts was computed using ΔΔCT calculation with respect to the house keeping gene HPRT.
For isolation of proteins of pancreatic cancer cell lines, cells were seeded in 10 cm dishes and grown for 2-3 days until 80% confluent. […] Protein concentration was measured in a spectrophotometer (Absorption at 280nm) and samples were stored at -80°C until use. […]

BxPC3-LVT xenografts = test: Subcutaneous BxPC3-LVT xenograft model; format: in vivo, Hsd:Athymic Nude-Foxn1^nu mice; settings: up to 100 mg/kg gemcitabine without additional IMAB362 treatment
[8] = system: established MiaPaCa-2-LVT xenograft tumors; test: Established MiaPaCa-2-LVT xenograft tumors; format: in vivo, Hsd:Athymic Nude-Foxn1^nu mice; settings: gemcitabine 2x 150 mg/kg per week, independent from IMAB362 treatment
MiaPaCa-2-LVT xenografts = test: Subcutaneous MiaPaCa-2-LVT xenograft model; format: in vivo, Hsd:Athymic Nude-Foxn1^nu mice; settings: up to 100 mg/kg gemcitabine without additional IMAB362 treatment

SMILES | claudin18.2 expression (CLDN18.2 [2]) | potency of IMAB362 to induce ADCC (Kato III cells [3]) | level of viable cells (Kato III cells [4]) | cell cycle arrest (Kato III cells [1]) | also measured
O=c1[nH]cc(F)c(=O)[nH]1 [5-FU, 5-fluoro-1H-pyrimidine-2,4-dione] |  |  |  |  | cell cycle phase distribution (Kato III cells [1]; Kato III, 5-FU 10 or 100 ng/ml, oxaliplatin 50 or 500 ng/ml, 96 hours): blocked predominantly in the S-phase
N.N.[Cl][Pt][Cl] [Cisplatin, cis-diamminedichloroplatinum(II)] | increased | augmented | lower level of viable cells |  | 
CC(=O)O[C@@]12CO[C@@H]1C[C@H](O)[C@@]1(C)C(=O)[C@H](O)C3=C(C)[C@@H](OC(=O)[C@H](O)[C@@H](NC(=O)OC(C)(C)C)c4ccccc4)C[C@@](O)([C@@H](OC(=O)c4ccccc4)[C@H]21)C3(C)C [Docetaxel, 1,7β,10β-trihydroxy-9-oxo-5β,20-epoxytax-11-ene-2α,4,13α-triyl 4-acetate 2-benzoate 13-{(2R,3S)-3-[(tert-butoxycarbonyl)-amino]-2-hydroxy-3-phenylpropanoate}] | increased | augmented | lower level of viable cells | cell cycle arrest in the G2-phase | 
CCc1c2c(nc3ccc(OC(=O)N4CCC(N5CCCCC5)CC4)cc13)-c1cc3c(c(=O)n1C2)COC(=O)[C@]3(O)CC [Irinotecan, (S)-4,11-diethyl-3,4,12,14-tetrahydro-4-hydroxy-3,14-dioxo1H-pyrano[3',4':6,7]-indolizino[1,2-b]quinolin-9-yl-[1,4'-bipiperidine]-1'-carboxylate] |  | augmented | lower level of viable cells | cell cycle arrest in the S/G2-phase | 
Nc1ccn([C@@H]2O[C@H](CO)[C@@H](O)C2(F)F)c(=O)n1 [gemcitabine, 4-amino-1-(2-deoxy-2,2-difluoro-β-D-erythro-pentofuranosyl)pyrimidin-2(1H)-one] |  |  |  |  | susceptibility for IMAB362 mediated ADCC (DANG [5]): higher susceptibility; cell cycle arrest (DANG [6]): cell cycle arrest in S-Phase; mRNA and protein levels of CLDN18.2 (CLDN18.2 [7]): increased mRNA and protein levels; therapeutic effect on xenograft (BxPC3-LVT xenografts): no significant therapeutic effect; tumor growth [8]: strongly inhibited in tumor growth; therapeutic effect on xenograft (MiaPaCa-2-LVT xenografts): no significant therapeutic effect
